Earlier results, collected in patent US20240041861A1, “COMPOSITIONS AND METHODS FOR TREATMENT AND PROPHYLAXIS OF VIRAL INFECTIONS” (priority 2020, published 2024).
Converted amounts (≈) assume the structure as drawn. Read-outs that look alike come from different tables or passages of the source.

Experiments:
[1] = in vivo
PDE5 = PDE5 (Homo sapiens, UniProt O76074)
[2] = in vivo; remark: listed apart in the source
[3] = not given; remark: listed apart in the source
[4] = not given; remark: listed apart in the source
[5] = human, in vivo

CCN(CCO)CCCC(C)Nc1ccnc2cc(Cl)ccc12 (centres unmarked) [hydroxychloroquine]
fraction of the dose absorbed [1]: 30-100%
renal clearance of unchanged drug [1]: 16-30%
absorption half-life ([1]; po): 0.12 to 0.17 days
terminal half-life ([1]; po): 40 to 50 days
time of peak plasma levels ([1]; po): 3 to 4 h
half-life (in vivo): about 40 days
mean fraction of the dose absorbed (in vivo): 0.74
dose excreted as the parent drug in urine (in vivo, po): approximately 10%
half-life (in vivo, po, 200 mg): 22.4 days
mean peak blood concentration (single 200 mg oral dose of PLAQUENIL, healthy males, blood): 129.6 ng/mL
half-life (single 200 mg oral dose, healthy males, plasma): 123.5 days

CCCc1nn(C)c2c(=O)[nH]c(-c3cc(S(=O)(=O)N4CCNCC4)ccc3OCC)nc12 [N-desmethyl metabolite]
in vitro potency for PDE5 relative to the parent drug (PDE5): approximately 50%
terminal half lives [2]: about 4 hours
bound to plasma proteins [3]: approximately 96%

CC(C)Nc1cccnc1N1CCN(C(=O)c2cc3cc(NS(C)(=O)=O)ccc3[nH]2)CC1 [delavirdine free base]
solubility ([4]; pH 1): 2940 µg/mL (≈ 6440 µM)
solubility ([4]; pH 2): 295 µg/mL (≈ 646 µM)
solubility ([4]; pH 7.4): 0.81 µg/mL (≈ 1.77 µM)

CCCc1nn(C)c2c(=O)[nH]c(-c3cc(S(=O)(=O)N4CCN(C)CC4)ccc3OCC)nc12 [sildenafil]
mean steady state volume of distribution (Vss) [2]: 105 L
terminal half lives [2]: about 4 hours
bound to plasma proteins [3]: approximately 96%

CC(C)c1nc(CN(C)C(=O)N[C@H](C(=O)N[C@@H](Cc2ccccc2)C[C@H](O)[C@H](Cc2ccccc2)NC(=O)OCc2cncs2)C(C)C)cs1 [ritonavir]
plasma levels relative to those obtained after the ritonavir dose of 600 mg twice daily [5]: less than 7%

CC(C)(C)OC(=O)N[C@H]1CCCCC/C=C\[C@@H]2C[C@@]2(C(=O)NS(=O)(=O)C2CC2)NC(=O)[C@@H]2C[C@@H](OC(=O)N3Cc4cccc(F)c4C3)CN2C1=O [Danoprevir]
IC50 (NS3/4A HCV protease GT1b): 0.2 to 0.4 nM
EC50 (replicon GT1b): 1.6 nM
